# Data from article PMC6376317, “Fluoromethylcyclopropylamine derivatives as potential in vivo toxicophores – A cautionary disclosure” (Bioorganic & Medicinal Chemistry Letters, 2019).
# “Also recorded” adds a separate entry of the source. Read-outs that look alike come from different tables or passages of the source.
# Columns and labels:
# PARG [1] = biological target: T1, PARG (Homo sapiens, UniProt Q86W56); type: biochemical; conditions: read-out: PARG Enzyme Activity
# PARG [2] = biological target: T1, PARG; type: cell-based; conditions: read-out: PARG Cell Assay
# [3] = Mouse microsomal stability; type: in vitro ADME; conditions: microsomes, read-out: Mouse Microsomes T1/2
# [4] = Human liver microsomal stability; type: in vitro ADME; conditions: liver microsomes, read-out: Human Microsomes T1/2
# Source text: Table 1 Improvements to metabolic stability through cyclopropyl modification. | column: Human Microsomes T1/2 (minutes)
# [5] = In vivo pharmacokinetics in CD-1 mice; design: species or system mouse; conditions: for In vivo half-life: initial in vivo PK studies; for Fold exposure relative to cell IC50: defined as [Cmax(free)]/Cell IC50
# Procedure: (§1) Pharmacokinetics were studied in 6-8 week old male CD-1 mice following single intravenous or oral administration. Compounds were formulated as solutions comprising up to 10% DMSO with up to 10% Tween80 in saline at a concentration of approximately 1 mM. Doses were administered at 1 mg/kg (intravenous) or 5 mg/kg (oral gavage) unless otherwise stated. Blood samples were collected as dried blood spots (Agilent Bond Elut DMS cards) and assayed following solvent extraction using methanol, through a phospholipid removal plate (Phree phospholipid removal plates, Phenomenex) followed by LC-MS/MS analysis. The time-points for blood collection were as follows: oral (0.5, 1, 3, 5 and 24 h); intravenous (0.1, 0.25, 0.75, 2, 5 and 24 h). The resulting concentration-time data were analyzed by non-compartmental methods (PK Solver, Excel Add-In).
# CD-1 mice = assay: In vivo tolerability / toxicity observation during PK studies; design: species or system mouse; conditions: for Toxicity Observed / Time of onset of ataxia after oral dosing: mice; for Tolerability in vivo: oral doses from 5 mg/kg to 160 mg/kg; for Time of onset of ataxia after oral dosing: oral dosing arm, 5 mg/kg
# Procedure: We therefore initiated a dose-escalation study to examine dose versus exposure of the compound. […] Our following study, with derivative 12, incorporated enhanced monitoring and here we observed the onset of ataxia shortly after the 5 h sampling time point, and exclusively in the oral dosing arm of the study, despite lower absolute and free drug exposures in these dosing arms.
# as §1
# [6] = Metabolite identification studies; type: in vitro ADME; conditions: formed via removal of the cyclopropylmethyl moiety
# Source text: In an attempt to improve the in vivo PK profile, we undertook a series of metabolite identification studies, to determine the key sites of metabolism on 1 and 2.
# [7] = geometric mean of at least two independent determinations
# [8] = oral dose 5 (mg/kg), male CD-1 mice
# T1 sequence (Q86W56 whole entry, species assumed): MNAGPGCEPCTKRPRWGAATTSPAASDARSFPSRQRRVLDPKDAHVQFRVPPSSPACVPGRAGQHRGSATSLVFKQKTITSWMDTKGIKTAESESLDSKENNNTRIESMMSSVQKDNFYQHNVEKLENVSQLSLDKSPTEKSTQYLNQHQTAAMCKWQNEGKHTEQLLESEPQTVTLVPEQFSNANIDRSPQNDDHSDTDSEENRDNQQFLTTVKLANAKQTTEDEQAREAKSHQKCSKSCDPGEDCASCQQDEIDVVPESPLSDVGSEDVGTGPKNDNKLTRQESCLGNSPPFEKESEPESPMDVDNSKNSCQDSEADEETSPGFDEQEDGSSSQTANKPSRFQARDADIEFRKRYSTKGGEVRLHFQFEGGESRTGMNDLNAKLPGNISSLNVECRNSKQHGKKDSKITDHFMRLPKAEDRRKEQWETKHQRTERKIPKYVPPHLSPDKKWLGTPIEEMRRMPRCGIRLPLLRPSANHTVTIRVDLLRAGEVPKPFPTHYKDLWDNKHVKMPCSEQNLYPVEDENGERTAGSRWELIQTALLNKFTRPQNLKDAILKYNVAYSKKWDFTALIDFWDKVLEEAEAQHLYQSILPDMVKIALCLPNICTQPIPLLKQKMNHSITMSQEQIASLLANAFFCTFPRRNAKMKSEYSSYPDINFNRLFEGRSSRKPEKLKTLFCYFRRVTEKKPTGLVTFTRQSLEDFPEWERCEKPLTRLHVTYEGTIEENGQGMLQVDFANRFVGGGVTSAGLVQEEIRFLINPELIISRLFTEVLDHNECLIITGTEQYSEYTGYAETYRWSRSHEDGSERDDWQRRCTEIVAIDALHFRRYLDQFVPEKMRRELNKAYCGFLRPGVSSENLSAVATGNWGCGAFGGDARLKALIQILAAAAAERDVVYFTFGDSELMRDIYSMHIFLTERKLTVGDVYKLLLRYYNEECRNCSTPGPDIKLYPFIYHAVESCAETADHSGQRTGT
SMILES,IC50 (PARG [1]; [7]),IC50 (PARG [2]; [7]),half-life [3],half-life [4],"Fold exposure relative to cell IC50 [5, 8]",Toxicity Observed (CD-1 mice; oral dose 5 (mg/kg)),other results
Cn1cc(Cn2c(=O)c3cc(S(=O)(=O)NC4(C)CC4)ccc3n(Cc3ccn(C)n3)c2=O)cn1 [Compound 1],20 nM,90 nM,22 min,53 min,0.96,No,"In vivo half-life ([5]; in words): short half-lives; Fold exposure relative to cell IC50 ([5]; oral dose 160 (mg/kg), mice): 350; Toxicity Observed (CD-1 mice; oral dose 160 (mg/kg)): No; Tolerability in vivo (CD-1 mice): well tolerated; Major metabolite [6]: primary sulphonamides 3 and 4"
Cc1cc(Cn2c(=O)c3cc(S(=O)(=O)NC4(C)CC4)ccc3n(C)c2=O)on1 [Compound 2],–,–,–,–,–,–,In vivo half-life ([5]; in words): short half-lives; Tolerability in vivo (CD-1 mice): well tolerated; Major metabolite [6]: primary sulphonamides 3 and 4
Cn1cc(Cn2c(=O)c3cc(S(=O)(=O)NC4(CF)CC4)ccc3n(Cc3ccn(C)n3)c2=O)cn1 [Compound 5],20 nM,170 nM,37 min,82 min,0.18,No,"In vivo clearance ([5]; mice, in words): very rapidly cleared after oral dosing; also recorded: high clearance"
Cn1cc(Cn2c(=O)c3cc(S(=O)(=O)NC4(C(F)F)CC4)ccc3n(Cc3ccn(C)n3)c2=O)cn1 [Compound 6],320 nM,1250 nM,42 min,71 min,–,–,–
Cn1cc(Cn2c(=O)c3cc(S(=O)(=O)NC4(C(F)(F)F)CC4)ccc3n(Cc3ccn(C)n3)c2=O)cn1 [Compound 7],3600 nM,4100 nM,38 min,102 min,–,–,–
[2H]C([2H])([2H])C1(NS(=O)(=O)c2ccc3c(c2)c(=O)n(Cc2cnn(C)c2)c(=O)n3Cc2ccn(C)n2)CC1 [Compound 8],30 nM,70 nM,18 min,34 min,–,–,–
CCn1c(=O)n(Cc2cnn(C)c2)c(=O)c2cc(S(=O)(=O)NC3(C)CC3)ccc21 [Compound 9],–,–,47 min,–,–,No,–
CCn1c(=O)n(Cc2cnn(C)c2)c(=O)c2cc(S(=O)(=O)NC3(CF)CC3)ccc21 [Compound 10],–,–,102 min,–,15,well tolerated and No,IC50 (PARG [1]): 100 nM; IC50 (PARG [2]): 80 nM; Toxicity Observed (CD-1 mice; oral dose 10 (dose-escalation study)): one animal was found dead on study; also recorded: liver toxicity was the probable cause of death
Cn1cc(Cn2c(=O)c3cc(S(=O)(=O)NC4(C)CC4)ccc3n(C)c2=O)cn1 [Compound 11],–,–,82 min,–,–,No,–
Cn1cc(Cn2c(=O)c3cc(S(=O)(=O)NC4(CF)CC4)ccc3n(C)c2=O)cn1 [Compound 12],–,–,285 min,–,61,Ataxia,"IC50 (PARG [1]): 630 nM; IC50 (PARG [2]): 290 nM; Total exposure and Cmax relative to compound 1 ([5]; in vivo, mice): over four-fold lower; Time of onset of ataxia after oral dosing (CD-1 mice): > 5 h"
CCn1c(=O)n(Cc2cc(C)on2)c(=O)c2cc(S(=O)(=O)NC3(CF)CC3)ccc21 [Compound 13],1520 nM,6600 nM,121 min,–,0.28,Ataxia,Time of onset of ataxia after oral dosing (CD-1 mice): > 5 h
